Values after ≈ are worked out from the molar mass of the structure shown.

Assay [1] can be described thus: Inhibition of Mycobacterium tuberculosis H37Rv cytochrome bd oxidase with ATP synthase overexpression inverted membrane vesicles. In kind it is cell membranes, Membrane vesicle.
Assay [2] deals with Mycobacterium tuberculosis. Kind of assay: Antimycobacterial activity against clinical isolate multi drug resistant Mycobacterium tuberculosis H37Rv assessed as inhibition of bacterial growth. The format is functional, organism-based.
The test system of assay [3] is Mycobacterium tuberculosis. Kind of assay: Antimycobacterial activity against Mycobacterium tuberculosis Rv1305 harbouring atpE gene. The format is functional.

`c1ccc(CCNc2ncnc3ccccc23)cc1` registered an IC50 in assay [1] of 27 µM.
As to `CC(C)(C)c1ccc(CCNc2ncnc3ccsc23)cc1`, the IC50 in assay [2] was determined as 18.9 µM.
Consider `NC(=O)NC(=O)c1nc(-c2cc3ccccc3o2)c(N)nc1N`, for which, in assay [3], it took 5 µM (≈ 1.56 µg/mL) to inhibit growth (MIC).
For `CCc1nc2ccc(Cl)cn2c1C(=O)NCc1ccc(N2CCC(c3ccc(OC(F)(F)F)cc3)CC2)cc1` [TELACEBEC], the MIC in assay [2] is not above 1 µM.

One may read the IC50 as the concentration at which inhibition is half-maximal. One may read the MIC as the lowest concentration that inhibits growth of the organism.
